Assay: Crystal precipitability of lidocaine in the tape preparation / ionic liquid
Type: physicochemical
Conditions: room temperature for several months
Description: A content initially inducing the crystal precipitation of lidocaine was examined. […] The crystal precipitability and transdermal absorbability therefor were evaluated. Lidoderm (registered trade name, from Endo, lidocaine content: 5%) was used as a standard material. […]

Crystal precipitation on storage: no crystal precipitation occurred
SMILES: CC(O)C(=O)O.CCN(CC)CC(=O)Nc1c(C)cccc1C [lactic acid salt of lidocaine]
